{"source": "patent US20030086820A1", "about": "(priority 2001, published 2003)", "key": {"[1]": {"tested_on": "ileal fluid dependent organism (IFDO)"}, "BSA protein": {"target": "BSA protein (Bos taurus, UniProt P02769)", "sequence (P02769 25-607 limits assumed)": "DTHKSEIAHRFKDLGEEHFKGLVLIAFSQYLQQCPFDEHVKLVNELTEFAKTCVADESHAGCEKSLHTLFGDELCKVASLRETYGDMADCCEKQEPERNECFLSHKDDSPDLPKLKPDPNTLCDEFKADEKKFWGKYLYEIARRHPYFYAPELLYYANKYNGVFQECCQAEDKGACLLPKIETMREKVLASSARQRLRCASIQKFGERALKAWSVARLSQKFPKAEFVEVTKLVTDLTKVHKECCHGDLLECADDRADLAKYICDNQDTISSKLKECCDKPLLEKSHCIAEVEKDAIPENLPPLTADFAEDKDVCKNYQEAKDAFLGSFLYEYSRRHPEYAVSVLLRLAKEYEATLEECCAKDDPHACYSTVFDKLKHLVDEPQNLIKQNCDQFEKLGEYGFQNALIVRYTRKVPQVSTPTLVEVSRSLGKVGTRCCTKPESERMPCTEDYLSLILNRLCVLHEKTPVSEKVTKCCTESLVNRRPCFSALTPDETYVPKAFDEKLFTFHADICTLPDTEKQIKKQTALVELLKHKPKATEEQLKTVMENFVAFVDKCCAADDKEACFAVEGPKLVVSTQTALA"}, "prion protein (PRP^SC)": {"target": "prion protein (PRP^SC) (Homo sapiens, UniProt P04156)"}}, "note": "Where two headings read alike, the source gives them in different places."}
{"smiles": "OO", "note": "[Vapor Hydrogen Peroxide, hydrogen peroxide]", "values": [{"measurement": "log reduction in IFDO", "setting": "[1]", "value": "six"}, {"measurement": "number of colonies developed on the vacuum treated samples", "setting": "[1]", "value": "less than 1 log"}, {"measurement": "deactivating the prion model (IFDO): vacuum pulses versus atmospheric conditions", "setting": "[1]; FIG. 9, atmospheric 1.5 mg/l 30° C. or 3 mg/l 40° C., 15 minutes", "value": "more effective"}, {"measurement": "log reduction in IFDO", "setting": "IFDO organisms", "value": "six"}, {"measurement": "number of colonies developed from IFDO remaining on the vacuum treated samples", "setting": "IFDO organisms", "value": "less than 1 log"}, {"measurement": "breakdown of protein (gel electrophoresis)", "setting": "BSA protein", "value": "effectively destroys proteins"}, {"measurement": "PRP^SC Detected", "setting": "prion protein (PRP^SC); 25° C., 1.7 mg/L, 3 hours exposure, atmospheric pressure", "value": "No"}, {"measurement": "PRP^SC Detected", "setting": "prion protein (PRP^SC); 30° C., 2.2 mg/L, vacuum conditions, six pulses of vapor", "value": "No"}, {"measurement": "PRP^SC Detected", "setting": "prion protein (PRP^SC); 50° C., 7.0 mg/L, vacuum conditions, three pulses of vapor", "value": "No"}, {"measurement": "destruction of the harmful form of the prion protein", "setting": "prion protein (PRP^SC); summary of Table 7, no precleaning step", "value": "effective at destruction of the harmful form of the prion protein"}]}
